Results reported in patent US20090111759A1, “Synergistic Combination of Glutamate-and Gaba-Gated Chloride Agonist Pesticide and at Least One Vitamin E, Niacin, or Derivatives Thereof” (priority 2006, published 2009).

Key:
[1] = tested on: houseflies; assay: Dorsal application of Abamectin and Vitamin E derivatives, mortality (Example 18); type: in vivo, housefly; details: combination of Abamectin and the Vitamin E derivative; 2 μl dorsally; Colby
Experimental: (§1) Various solutions of Vitamin E derivatives, Abamectin and combinations of Vitamin E derivatives and Abamectin were applied dorsally on houseflies. On each housefly 2 μl test solution was applied. The mortality of the treatments was recorded. The mortality results were analysed according to Colby. The synergistic activity of Abamectin and various Vitamin E derivatives on houseflies is illustrated in table 18.

[2] = tested on: nymphs of Dysdercus cingulatus; assay: Dorsal application of Abamectin and Vitamin E derivatives, mortality (Example 19); type: in vivo; details: combination of Abamectin and the Vitamin E derivative; 2 μl dorsally; Colby
Experimental: as §1, with “nymphs of Dysdercus cingulatus.” for “houseflies.”, “Dysdercus cingulatus” for “housefly”, “Dysdercus cingulatus” for “houseflies”, “19.” for “18.”

[3] = tested on: houseflies; assay: Dorsal application of Abamectin and nicotinic acid derivatives, mortality (Example 21); type: in vivo, housefly; details: combination of Abamectin and the nicotinic acid derivative; 2 μl dorsally; Colby
Experimental: Various solutions of nicotinic acid derivatives, Abamectin and combinations of nicotinic acid derivatives and Abamectin were applied dorsally on houseflies. On each housefly 2 μl test solution was applied. The mortality of the treatments was recorded. The mortality results were analysed according to Colby.

[4] = tested on: Haemonchus contortus; assay: Larvae feeding inhibition study (Example 23); details: Ivermectin resistant isolate, mixtures: based on concentration of IVM or DOR
Description: (§2) The calculations done according to Wadley and shown in Table 23 indicate that synergistic action of Ivermectin and tocopheryl acetate and Doramectin and tocopheryl acetate was pre-sent in the larvae feed inhibition study. The synergistic action of Ivermectin and tocepheryl acetate in the H. contortus experiment is of particular interest because the H. contortus iso-late used was Ivermectin resistant.

[5] = tested on: Teladorsagia (Ostertagia) circumcincta; assay: Larvae feeding inhibition study (Example 23); details: mixtures: based on concentration of IVM or DOR
Description: as §2

[6] = tested on: Trichostrongylus colubriformis; assay: Larvae feeding inhibition study (Example 23); details: mixtures: based on concentration of IVM or DOR
Description: as §2

[7] = tested on: Tetranychus urticae; assay: Spray test of Spinosad and tocopheryl acetate on bean plants (Vicia faba), leaf protection (Example 13); type: in vivo; details: single active, leaf protection 7 days after mites placed, average of four evaluations
Description: Using the alternative method for determining synergism the effect of each mixture of Spinosad and tocopheryl acetate is compared with the effect of the same rate of each of the active ingredients used alone.

[8] = tested on: cat fleas (Ctenocephalides felis felis) larvae; assay: In vitro contact test on flea larvae (Example 25); details: inactivation of the fleas; mixture: based on the concentration of Selamectin
[9] = tested on: cat fleas (Ctenocephalides felis felis) adult; assay: In vitro contact test on adult fleas (Example 25); details: inactivation of the fleas; mixture: based on the concentration of Selamectin
[10] = tested on: cat fleas (Ctenocephalides felis felis) larvae; assay: In vitro larvae test based on systemic activity (Example 25); details: inactivation of the fleas; mixture: based on the concentration of Selamectin

Row | Compound | R (obs mortality/exp mortality) [1] | R (obs mortality/exp mortality) [2] | R (obs mortality/exp mortality) [3] | further results
1 | Cc1c(C)c2c(c(C)c1OC(=O)c1cccnc1)CC[C@@](C)(CCC[C@H](C)CCC[C@H](C)CCCC(C)C)O2 [(+)alpha-tocopheryl nicotinate] | 3.0 | 1.2 | 3.0 | –
2 | Cc1c(C)c2c(c(C)c1O)CCC(C)(C(=O)O)O2 (stereo not shown) [Trolox, 6-hydroxy-2,5,7,8-tetramethylchroman-2-carboxylic acid] | 1.3 | – | – | –
3 | CC(=O)Oc1c(C)c(C)c2c(c1C)CC[C@@](C)(CCC[C@H](C)CCC[C@H](C)CCCC(C)C)O2 [(+)alpha-tocopheryl acetate] | 1.9 | 1.2 | – | –
4 | Cc1c(C)c2c(c(C)c1OC(=O)CCC(=O)O)CC[C@@](C)(CCC[C@H](C)CCC[C@H](C)CCCC(C)C)O2 [(+)alpha-tocopheryl succinate] | – | 1.3 | – | –
5 | CO[C@H]1C[C@H](O[C@H]2[C@H](C)O[C@@H](O[C@@H]3/C(C)=C/C[C@@H]4C[C@@H](C[C@]5(C=C[C@H](C)[C@@H](C6CCCCC6)O5)O4)OC(=O)[C@@H]4C=C(C)[C@@H](O)[C@H]5OC/C(=C\C=C\[C@@H]3C)[C@]54O)C[C@@H]2OC)O[C@@H](C)[C@@H]1O [DOR, Doramectin] | – | – | – | LFI-50 H. con. ([4]; larvae feeding inhibition 50%): 2.63 ppb; LFI-96 H. con. ([4]; larvae feeding inhibition 96%): 10.37 ppb; LFI-99 H. con. ([4]; larvae feeding inhibition 99%): 16.30 ppb; LFI-50 T. cir. ([5]; larvae feeding inhibition 50%): 6.12 ppb; LFI-96 T. cir. ([5]; larvae feeding inhibition 96%): 13.14 ppb; LFI-99 T. cir. ([5]; larvae feeding inhibition 99%): 18.52 ppb; LFI-50 T. col. ([6]; larvae feeding inhibition 50%): 2.57 ppb; LFI-96 T. col. ([6]; larvae feeding inhibition 96%): 8.04 ppb; LFI-99 T. col. ([6]; larvae feeding inhibition 99%): 12.22 ppb
6 | Cc1cc(O)cc2c1O[C@](C)(CCC[C@H](C)CCC[C@H](C)CCCC(C)C)CC2 [(+)delta-tocopherol] | – | 1.6 | – | –
7 | Cc1c(C)c2c(c(C)c1O)CC[C@@](C)(CCC[C@H](C)CCC[C@H](C)CCCC(C)C)O2 [(+)alpha-tocopherol] | 2.0 | 1.1 | – | –
8 | Spinosad | – | – | – | % protection ([7]; 100 g/ha): 5%; % protection ([7]; 300 g/ha): 5%
9 | CCOC(=O)c1cccnc1 [Ethyl nicotinate] | – | – | 1.4 | –
10 | COC(=O)c1cccnc1 [Methyl nicotinate] | – | – | 3.0 | –
11 | O=C(O)c1cccnc1 [Nicotinic acid] | – | – | 1.4 | –
12 | O=C(O)c1ccncc1 [Isonicotinic acid] | – | – | >2 | –
13 | CO[C@H]1C[C@H](O[C@@H]2/C(C)=C/C[C@@H]3C[C@@H](C[C@]4(CC[C@H](C)[C@@H](C5CCCCC5)O4)O3)OC(=O)[C@@H]3C=C(C)/C(=N/O)[C@H]4OC/C(=C\C=C\[C@@H]2C)[C@]43O)O[C@@H](C)[C@@H]1O [Selamectin] | – | – | – | ED50 Larvae contact [8]: 31 ppm; ED50 Adult contact [9]: 24330 ppm; ED50 Larvae systemic [10]: 1.5 ppm
